Results as given in PubChem BioAssay (NCI).
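The compound was tested at five concentrations on cells cultured in 96-well plates, with a 48-hour exposure period. At the GI50, growth is halved. The concentration for full growth arrest is given as TGI.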

What was measured:
Test in all cases: growth of human tumour cells (NCI), 48 h
NCI-H460 lung = test system: NCI-H460 lung
SK-MEL-5 melanoma = test system: SK-MEL-5 melanoma
NCI-H23 lung = test system: NCI-H23 lung
TK-10 renal = test system: TK-10 renal
SK-MEL-2 melanoma = test system: SK-MEL-2 melanoma
SNB-75 CNS = test system: SNB-75 CNS
OVCAR-3 ovarian = test system: OVCAR-3 ovarian
KM12 colon = test system: KM12 colon
MDA-MB-231 breast = test system: MDA-MB-231 breast
BT-549 breast = test system: BT-549 breast

| Structure (SMILES) | TGI (NCI-H460 lung) [µM] | TGI (SK-MEL-5 melanoma) [µM] | TGI (NCI-H23 lung) [µM] | TGI (TK-10 renal) [µM] | TGI (SK-MEL-2 melanoma) [µM] | TGI (SNB-75 CNS) [µM] | TGI (OVCAR-3 ovarian) [µM] | TGI (KM12 colon) [µM] | GI50 (NCI-H460 lung) [µM] | GI50 (SK-MEL-5 melanoma) [µM] | GI50 (OVCAR-3 ovarian) [µM] | GI50 (KM12 colon) [µM] | GI50 (NCI-H23 lung) [µM] | GI50 (TK-10 renal) [µM] | GI50 (SK-MEL-2 melanoma) [µM] | GI50 (SNB-75 CNS) [µM] | GI50 (MDA-MB-231 breast) [µM] | TGI (MDA-MB-231 breast) [µM] | GI50 (BT-549 breast) [µM] | TGI (BT-549 breast) [µM] |
| --- | --- | --- | --- | --- | --- | --- | --- | --- | --- | --- | --- | --- | --- | --- | --- | --- | --- | --- | --- | --- |
| CNS(=O)(=O)NNS(=O)(=O)c1ccc(Br)cc1 | > 100 | > 100 | > 100 | > 100 | > 100 | > 100 |  |  |  |  |  |  |  |  |  |  |  |  |  |  |
| O=S(=O)(c1ccccc1)C1CN2OC1(S(=O)(=O)c1ccccc1)CC2c1ccc(Br)cc1 (configuration not stated) | > 100 | > 100 | > 100 | > 100 | > 100 | 22.1 | > 100 | > 100 |  |  |  |  |  |  |  |  |  |  |  |  |
| CCCN1CN(C(C(=O)N[C@@H]2C(=O)N3C2SC(C)(C)C3C(=O)O)c2ccc(O)cc2)CSC1=S (some centres not stated) | > 100 | > 100 | > 100 | > 100 | > 100 | > 100 | 72.6 | > 100 |  |  |  |  |  |  |  |  |  |  |  |  |
| Cc1cc(C)nc(NS(=O)(=O)c2ccc(NC(=O)c3cccc4c(Nc5ccc(S(N)(=O)=O)cc5)c5ccccc5nc34)cc2)n1 | > 100 | > 95.9 | > 100 | > 100 | > 31.1 | > 100 | 27.6 | 47.3 |  |  |  |  |  |  |  |  |  |  |  |  |
| COc1ccc(-c2ccc(-c3ccc(C(=N)N)s3)s2)cc1 | 0.364 | 2.87 | 0.66 | 0.337 | 4.14 | 2.91 | 0.352 | 0.357 | 0.192 | 1.21 | 0.194 | 0.19 | 0.264 | 0.175 | 2.22 | 1.39 | 0.186 | 0.371 |  |  |
| COc1c[c]([Hg][O]C(C)=O)c(OC)c(NC(=O)CC(C)=O)[c]1[Hg][O]C(C)=O | 39 | 11.2 | 17.9 | 14 | 28.2 | 28 | > 21.1 | > 62.1 | 16.3 | 2.75 |  | > 43.2 | 11.6 | 4.46 | 13.8 | 14 |  |  |  |  |
| Cc1ccc(S(=O)(=O)c2ccc(N)cc2)cc1 | > 100 | > 100 | > 100 | > 100 | > 100 | > 100 | > 100 | > 100 |  |  |  |  |  |  |  |  |  |  |  |  |
| NC(=O)OCCn1cc(-c2nc(-c3c[nH]c4ncccc34)cs2)c2ccccc21 | 12.5 | 2.85 | > 100 | 7.66 | 3.96 |  | 3.83 | 9.45 | 2.46 | 1.41 | 1.27 | 1.44 | 2.02 | 2.24 | 1.52 |  | 1.1 | 4.38 | 1.5 | 6.04 |
| CC(C)C(=O)NS(=O)(=O)c1ccccc1 | > 100 |  | > 100 | > 100 | > 100 | > 100 | > 100 | > 100 |  |  |  |  |  |  |  |  |  |  |  |  |
| CC(C)C(=O)Nc1nc2c(ncn2C2OC(CO)C(O)C2O)c(=O)[nH]1 (configuration not stated) | > 100 | > 100 | > 100 | > 100 | > 100 | > 100 | > 100 | > 100 |  |  |  |  |  |  |  |  |  |  |  |  |
| C1=C\COCc2cc(ccc2OCCN2CCCC2)Nc2nccc(n2)-c2cccc(c2)COC/1 | 5.12 |  | 5.79 | 5.79 | 5.51 | 4.75 | 5.57 | 3.74 | 1.39 |  | 2.01 | 0.348 | 2.09 | 3.33 | 2.49 | 1.64 | 1.92 | 5.61 | 4.67 | 6.66 |
| O=Cc1ccc2c(c1-c1c(C=O)ccc3c1OCO3)OCO2 | > 100 | > 100 | > 100 | > 100 | > 100 | > 100 | > 100 | > 100 |  |  |  |  |  |  |  |  |  |  |  |  |
| CC(C)N(C(=O)C12C3C4C1(I)C1C2C3(I)C41C(=O)N(C(C)C)C(C)C)C(C)C (configuration not stated) | > 100 | > 100 | > 100 | > 100 | > 100 | > 100 | > 100 | > 62.5 |  |  |  |  |  |  |  |  |  |  |  |  |
| COC1(OC)CC2C(=O)N(Cc3ccccc3)C1C=C2S(=O)(=O)c1ccccc1 (configuration not stated) | 38.6 | 26.7 | 38.1 | 49.1 |  | 93.9 | 28 | 31.6 |  |  |  |  |  |  |  |  |  |  |  |  |
| Cc1cc(NS(=O)(=O)c2ccc(Nc3c4ccccc4nc4c(C(=O)N5CCN(CCO)CC5)ccc(Cl)c34)cc2)no1 | > 100 | > 100 | > 100 | > 100 | > 100 | > 100 | > 100 | > 100 |  |  |  |  |  |  |  |  |  |  |  |  |
| COc1ncc(-c2ccc3ncnc(Nc4cccc(Cl)c4)c3c2)cc1NS(=O)(=O)C1CC1 |  | > 100 | > 100 |  |  |  |  | > 100 |  | > 100 |  | 38.9 | 3.8 |  |  |  | 3.38 | > 100 |  |  |
| COC(=O)/C=C/c1c(CC=C(C)C)ncn1C | > 100 | > 100 | > 100 | > 100 | > 100 | 56 | 59 | > 100 |  |  |  |  |  |  |  |  |  |  |  |  |
| COC(=O)[C@H]1C=C[C@@H](C)n2c(=O)c3cc4ccccc4cc3c(=O)n21 | > 100 | > 100 | > 100 | > 100 | > 100 | > 100 | > 100 | > 100 |  |  |  |  |  |  |  |  |  |  |  |  |
| COc1cc2c(c(OC)c1OC)-c1ncc3cc4c(cc3c1C2)OCO4 | 38.2 | 36.5 |  | 67.3 | > 100 | > 100 | 38.1 | 80.1 | 15.5 | 17.4 | 15.5 | 18.6 |  | 26.2 | 38.9 | 79.4 | 13.8 | 88.8 | 3.76 | 20.1 |
| O=C(/C=C/c1ccccc1Cl)NC1C=Nc2ccc([N+](=O)[O-])cc2NC1 (configuration not stated) | > 100 | > 100 |  | > 100 | > 100 | > 100 | > 100 | > 100 |  |  |  |  |  |  |  |  |  |  |  |  |
